Results from ChEMBL document CHEMBL1773053, “Immunosuppressive but non-LasR-inducing analogues of the Pseudomonas aeruginosa quorum-sensing molecule N-(3-oxododecanoyl)-l-homoserine lactone” (J Med Chem, 2011).

Columns and labels:
[1] = Immunosuppressive activity in mouse concanavalin A-stimulated peripheral blood leukocyte assessed as inhibition of leukocyte proliferation by [3H]thymidine incorporation assay; format: functional
Jurkat = experiment: Cytotoxicity against human Jurkat E6-1 cells assessed as cell viability after 24 hrs by trypan blue exclusion assay; format: cell-based; settings: for EC50: Homo sapiens, Jurkat; for Activity: human, jurkat
[2] = target: T1, Transcriptional activator protein LasR (Pseudomonas aeruginosa (strain ATCC 15692 / PAO1 / 1C / PRS 101 / LMG12228)) (UniProt P25084); experiment: Inhibition of OdDHL-induced LasR activation in Pseudomonas aeruginosa PAKR02 harboring lasB::luxCDABE gene assessed as remaining Las activity at 10^-4 M after 24 hrs by bioluminescence assay
T1 sequence (whole entry): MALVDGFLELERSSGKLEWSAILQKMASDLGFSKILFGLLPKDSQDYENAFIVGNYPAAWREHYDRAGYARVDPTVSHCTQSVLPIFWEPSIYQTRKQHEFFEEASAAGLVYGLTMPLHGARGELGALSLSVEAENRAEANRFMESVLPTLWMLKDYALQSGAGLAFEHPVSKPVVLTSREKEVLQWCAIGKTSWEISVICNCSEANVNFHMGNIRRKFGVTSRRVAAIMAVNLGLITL

[3] = target: T1, Transcriptional activator protein LasR (Pseudomonas aeruginosa (strain ATCC 15692 / PAO1 / 1C / PRS 101 / LMG12228)); experiment: Induction of lasR-mediated quorum sensing in Pseudomonas aeruginosa PAKR02 harboring lasB::luxCDABE gene assessed as lasR-induction ratio at 10^-4 M after 24 hrs by bioluminescence assay relative to control

SMILES | EC50 [1] [µM] | EC50 (Jurkat) [µM] | Activity [2] [%] | Ratio [3] | Activity (Jurkat)
CCCCCCCCNC(=O)CC(=O)Nc1cc(Cl)ccc1O | 9.3 | > 1000 | 66 | 0.62 | –
CCCCCCCCOC(=O)CC(=O)N[C@H]1CCOC1=O | 37 | 500 | 46 | 1.18 | –
CCCCCCCCCN(O)CC(=O)N[C@H]1CCOC1=O | 13 | 400 | 69 | 0.99 | –
CCCCOCCCNC(=O)CC(=O)N[C@H]1CCOC1=O | 101 | > 1000 | 108 | 0.97 | –
CCCCCCCCCC(CC(=O)N[C@H]1CCOC1=O)OC(C)=O (mixture of isomers) | 5.2 | 120 | 70 | 1.13 | –
CCCCCCCCNC(=O)CC(=O)N[C@@H]1CCCC[C@@H]1O | 32 | 400 | 45 | 0.92 | –
CCCCCCCCNC(=O)CC(=O)Nc1ccc2[nH]ncc2c1 | 55 | > 1000 | 62 | 1.1 | –
CCCCCCCCCSCC(=O)N[C@H]1CCOC1=O | > 1000 | > 1000 | 51 | 0.9 | –
CCCCCCCCCS(=O)(=O)CC(=O)N[C@H]1CCOC1=O | 31 | 200 | 72 | 0.92 | –
CCCCCCCCCN(CC(=O)N[C@H]1CCOC1=O)OCc1ccccc1 | 17 | 63 | – | – | –
CCCCCCCCC[S+]([O-])CC(=O)N[C@H]1CCOC1=O (some centres undefined) | 27 | 720 | – | – | –
CCCCCCCCN(CCC)C(=O)CC(=O)N[C@H]1CCOC1=O | 28 | 200 | 101 | 0.99 | –
CCCCCCCCNC(=O)C(F)(F)C(=O)N[C@H]1CCOC1=O | 97 | > 1000 | 6 | – | –
CCCCCCCCCC(=O)CC(=O)Nc1nccs1 | 25 | 800 | 51 | 0.87 | –
CCCCCCCCCC(=O)CC(=O)N[C@H]1CC(=O)NC1=O | > 1000 | – | 82 | 1.04 | Non-toxic
CCCCCCCCCC(=O)CC(=O)N[C@H]1CCOC1=O | 21 | 250 | – | 12.3 | –
CCCCCCCCCN(N)CC(=O)N[C@H]1CCOC1=O | 8.9 | 410 | 55 | 1.03 | –
CCCCCCCCCNC(=O)CC(=O)N[C@H]1CCOC1=O | 23 | 530 | 3.4 | 1.01 | –
CCCCCCCCN(C)C(=O)CC(=O)N[C@H]1CCOC1=O | 22 | > 1000 | 60 | 0.91 | –
CCCCCCCCNC(=O)CC(=O)Nc1cccc(C(N)=O)c1 | 15 | 700 | 59 | 0.81 | –

SMILES | EC50 [1] [µM] | EC50 (Jurkat) [µM] | Activity [2] [%] | Ratio [3] | Activity (Jurkat)
CCCCCCCCN(CCO)C(=O)CC(=O)N[C@H]1CCOC1=O | 41 | 300 | 16 | 1.01 | –
CCCCCCCCNC(=O)CC(=O)Nc1nccs1 | 27 | 600 | 64 | 0.9 | –
CCCCCCCCNC(=O)C(F)C(=O)N[C@H]1CCOC1=O (some centres undefined) | 26 | 800 | 57 | 0.91 | –
CCCCCCCCC/C(O)=C1/C(=O)N[C@@H](CCO)C1=O | 29 | 52 | 21 | 0.96 | –
CCCCCCCCNC(=O)CC(=O)Nc1ccccn1 | 18 | > 1000 | 41 | 0.91 | –
CCCCCCCCCCCS(=O)(=O)CC(=O)N[C@H]1CCOC1=O | 8.3 | 170 | 76 | 0.75 | –
CCCCCCCCNC(=O)CC(=O)Nc1ccccc1C(N)=O | 25 | 120 | 23 | 0.8 | –
CCCCCCCCNS(=O)(=O)CC(=O)N[C@H]1CCOC1=O | 13 | 900 | 101 | 1.02 | –
CCCCOCCCNC(=O)CC(=O)N[C@@H]1CCC[C@@H]1O | 160 | > 1000 | 111 | 0.94 | –
CCCCCCCCNC(=O)CC(=O)N[C@@H]1CCC[C@@H]1O | 43 | 400 | 55 | 0.96 | –
CCCCCCCCNC(=O)CC(=O)N[C@H]1CCOC1=O | 35 | 200 | 20 | 1.06 | –
CCCCCCCCNC(=O)CC(=O)NC1CCCCCC1 | 14 | 78 | 19 | 0.9 | –
CCCCCCCCCCC[S+]([O-])CC(=O)N[C@H]1CCOC1=O (some centres undefined) | 8.2 | 45 | 63 | 0.77 | –
CCCCCCCCNC(=O)CC(=O)Nc1ccccc1O | 22 | > 1000 | 29 | 0.79 | –
CCCCCCCCCC(=O)CC(=O)N[C@H]1CCC(=O)NC1=O | 77 | – | 71 | 1.03 | Non-toxic
CCOCCOCCNC(=O)CC(=O)N[C@@H]1CCC[C@@H]1O | 192 | 700 | 89 | 1.03 | –
CCCCCCCCCCCNC(=O)CC(=O)N[C@H]1CCOC1=O | 12 | 140 | 14 | 0.72 | –
CCCCCCCCNC(=O)CC(=O)Nc1ccccc1C(=O)N(C)C | 22 | 160 | 37 | 0.91 | –
CCCCCCCCNC(=O)CS(=O)(=O)N[C@H]1CCOC1=O | 9.1 | 220 | 86 | 1.04 | –
CCOCCOCCNC(=O)CC(=O)N[C@H]1CCOC1=O | > 1000 | > 1000 | 61 | 1.02 | –
